Assays:
C57BL/6 DIO mice = experiment: Nestlet shredding test in C57BL/6 DIO mice; assay type: in vivo; conditions: Belaronib 0.3 mg/kg SC, Celastrol 0.2 mg/kg IP daily, mean
Experimental: C57BL/6 mice were treated with test compound (Celastrol) or controls as shown in the table below from Day 1 to Day 15. […] One mouse was excluded from the study because it appeared resistant to nestlet shredding prior to treatment.
Male C57BL/6 DIO mice were obtained from Jackson Labs (Bar Harbor, ME). The mice arrived at ages 17 weeks and mice were housed 3 per cage on arrival. Prior to dosing in the study, the mice were singly housed.
(§1) All treatment volumes were 10 mL/kg. Utilizing the art-recognized nestlet shredding mouse model, […]. Celastrol and the vehicle control were administered intraperitoneally using a 30G needle. Beloranib was administered subcutaneously using a 30G needle. All treatments were administered daily in the afternoon at 17:00 h, 1 hour before dark cycle from Day 1 to end of dosing.
Celastrol was dissolved in a pharmaceutically-acceptable excipient, e.g., 50% Solutol/50% DMAC, and this stock solution aliquoted and stored at −80° C. until treatment day. On the day of treatment, an aliquot of the stock solution was thawed and diluted […] with saline to obtain the desired dosing solution strength in 5% Solutol/5% dimethylacetamide/90% saline. The vehicle control was 5% Solutol/5% dimethylacetamide/90% saline. Beloranib was dissolved in 100% DMSO, and this stock solution was aliquoted and stored at −80° C. until treatment day. On the day of treatment, an aliquot of the stock solution was thawed and diluted 1:10 with deionized (DI) water to obtain the desired dosing solution strength in 10% DMSO.
The nestlet shredding test is an art-recognized animal model for human repetitive, anxiety, and/or compulsive behaviors. In the nestlet shredding test, a nestlet comprised of pulped fiber, e.g., cotton fiber, is preweighed and placed on top of cage bedding and the amount of the nestlet remaining intact after a test session of pre-determined time is evaluated.
Nestlet shredding was determined on day 1, day 6, day 11 and day 15 by placing a fresh nestlet prior to the dark cycle and measuring the weight of the remaining nestlet at 12 and 24 hours on an Ohaus model CS 200 balance. Percent shredding was calculated based on the initial nestlet weight.

C57BL/6-Magel2 mice = experiment: Body weights of C57BL/6 Magel2 mice during daily treatment; assay type: in vivo; conditions: 0.2 mg/kg IP QD, mean
Experimental: In the study disclosed herein, celastrol at was administered intraperitoneally using a 30G needle at a dose of 0.2 mg/kg to five female Magel2 homozygous mice (−/−) and four male mice heterozygous for Magel2 (−/+). In addition, vehicle was administered to four male mice heterozygous for Magel2 (−/+) for 21 days.
C57BL/6-Magel2 mice were bred for purpose from cryo recovery by Jackson Labs (Bar Harbor, ME) and arrived at the testing facility at age 8 weeks.
as §1, with “needle.” for “needle. Beloranib was administered subcutaneously using a 30G needle.”
Celastrol was dissolved in 50% Solutol/50% DMAC. The resulting stock solution aliquoted and stored at −80° C. until treatment day. On the day of treatment an aliquot of the stock solution was thawed and diluted 1:20 with saline to obtain the desired dosing solution strength in 5%
Mouse body weights were recorded from an Ohaus model CS 200 balance. Mice were weighed daily on Day 1 to Day 21. Body weight changes are expressed as grams and percent of the initial body weight (on Day 1, when treatments began).

[1] = Day 1, Magel2 (−/+) heterozygous male mice
[2] = Day 1, Magel2 (−/−) homozygous female mice
[3] = Day 2, Magel2 (−/+) heterozygous male mice
[4] = Day 2, Magel2 (−/−) homozygous female mice
[5] = Day 4, Magel2 (−/+) heterozygous male mice
[6] = Day 4, Magel2 (−/−) homozygous female mice
[7] = Day 6, Magel2 (−/+) heterozygous male mice
[8] = Day 6, Magel2 (−/−) homozygous female mice
[9] = Day 8, Magel2 (−/+) heterozygous male mice
[10] = Day 8, Magel2 (−/−) homozygous female mice
[11] = Day 10, Magel2 (−/+) heterozygous male mice
[12] = Day 10, Magel2 (−/−) homozygous female mice
[13] = Day 11, Magel2 (−/+) heterozygous male mice
[14] = Day 11, Magel2 (−/−) homozygous female mice
[15] = Day 13, Magel2 (−/+) heterozygous male mice
[16] = Day 13, Magel2 (−/−) homozygous female mice
[17] = Day 15, Magel2 (−/+) heterozygous male mice
[18] = Day 15, Magel2 (−/−) homozygous female mice
[19] = Day 17, Magel2 (−/+) heterozygous male mice

Compound: CC1=C(O)C(=O)C=C2C1=CC=C1[C@@]2(C)CC[C@@]2(C)[C@@H]3C[C@](C)(C(=O)O)CC[C@]3(C)CC[C@]12C [Celastrol]
- Nestlet Shredding (percent of nestlet shredded) (C57BL/6 DIO mice; Day 1, 12 hour): 94.4%
- Nestlet Shredding (percent of nestlet shredded) (C57BL/6 DIO mice; Day 6, 12 hour): 70.1%
- Nestlet Shredding (percent of nestlet shredded) (C57BL/6 DIO mice; Day 6, 24 hour): 93.6%
- Nestlet Shredding (percent of nestlet shredded) (C57BL/6 DIO mice; Day 11, 12 hour): 43.7%
- Nestlet Shredding (percent of nestlet shredded) (C57BL/6 DIO mice; Day 11, 24 hour): 71.0%
- Nestlet Shredding (percent of nestlet shredded) (C57BL/6 DIO mice; Day 15, 12 hour): 50.9%
- Nestlet Shredding (percent of nestlet shredded) (C57BL/6 DIO mice; Day 15, 24 hour): 63.3%
- Body weights (expressed as a percentage of day-1 weight) (C57BL/6-Magel2 mice; [1]): 100.0%
- Body weights (in grams) (C57BL/6-Magel2 mice; [1]): 26.6 grams
- Body weights (expressed as a percentage of day-1 weight) (C57BL/6-Magel2 mice; [2]): 100.0%
- Body weights (in grams) (C57BL/6-Magel2 mice; [2]): 20.5 grams
- Body weights (expressed as a percentage of day-1 weight) (C57BL/6-Magel2 mice; [3]): 99.6%
- Body weights (in grams) (C57BL/6-Magel2 mice; [3]): 26.5 grams
- Body weights (expressed as a percentage of day-1 weight) (C57BL/6-Magel2 mice; [4]): 101.2%
- Body weights (in grams) (C57BL/6-Magel2 mice; [4]): 20.8 grams
- Body weights (expressed as a percentage of day-1 weight) (C57BL/6-Magel2 mice; [5]): 101.1%
- Body weights (in grams) (C57BL/6-Magel2 mice; [5]): 26.9 grams
- Body weights (expressed as a percentage of day-1 weight) (C57BL/6-Magel2 mice; [6]): 105.6%
- Body weights (in grams) (C57BL/6-Magel2 mice; [6]): 21.7 grams
- Body weights (expressed as a percentage of day-1 weight) (C57BL/6-Magel2 mice; [7]): 99.4%
- Body weights (in grams) (C57BL/6-Magel2 mice; [7]): 26.4 grams
- Body weights (expressed as a percentage of day-1 weight) (C57BL/6-Magel2 mice; [8]): 107.1%
- Body weights (in grams) (C57BL/6-Magel2 mice; [8]): 22.0 grams
- Body weights (expressed as a percentage of day-1 weight) (C57BL/6-Magel2 mice; [9]): 101.3%
- Body weights (in grams) (C57BL/6-Magel2 mice; [9]): 26.9 grams
- Body weights (expressed as a percentage of day-1 weight) (C57BL/6-Magel2 mice; [10]): 106.2%
- Body weights (in grams) (C57BL/6-Magel2 mice; [10]): 21.8 grams
- Body weights (expressed as a percentage of day-1 weight) (C57BL/6-Magel2 mice; [11]): 96.4%
- Body weights (in grams) (C57BL/6-Magel2 mice; [11]): 25.6 grams
- Body weights (expressed as a percentage of day-1 weight) (C57BL/6-Magel2 mice; [12]): 100.9%
- Body weights (in grams) (C57BL/6-Magel2 mice; [12]): 20.7 grams
- Body weights (expressed as a percentage of day-1 weight) (C57BL/6-Magel2 mice; [13]): 94.4%
- Body weights (in grams) (C57BL/6-Magel2 mice; [13]): 25.1 grams
- Body weights (expressed as a percentage of day-1 weight) (C57BL/6-Magel2 mice; [14]): 95.6%
- Body weights (in grams) (C57BL/6-Magel2 mice; [14]): 19.6 grams
- Body weights (expressed as a percentage of day-1 weight) (C57BL/6-Magel2 mice; [15]): 94.2%
- Body weights (in grams) (C57BL/6-Magel2 mice; [15]): 25.0 grams
- Body weights (expressed as a percentage of day-1 weight) (C57BL/6-Magel2 mice; [16]): 93.5%
- Body weights (in grams) (C57BL/6-Magel2 mice; [16]): 19.2 grams
- Body weights (expressed as a percentage of day-1 weight) (C57BL/6-Magel2 mice; [17]): 93.9%
- Body weights (in grams) (C57BL/6-Magel2 mice; [17]): 25.0 grams
- Body weights (expressed as a percentage of day-1 weight) (C57BL/6-Magel2 mice; [18]): 95.0%
- Body weights (in grams) (C57BL/6-Magel2 mice; [18]): 19.5 grams
- Body weights (expressed as a percentage of day-1 weight) (C57BL/6-Magel2 mice; [19]): 85.0%
- Body weights (in grams) (C57BL/6-Magel2 mice; [19]): 22.6 grams

Source: patent US20260191807A1, “COMPOSITIONS AND METHODS FOR TREATMENT OF PRADER-WILLI SYNDROME” (ERX Pharmaceuticals Inc., priority 2022, published 2026)
